From ChEMBL document CHEMBL5380814, “Targeting Receptor-Interacting Protein Kinase 1 by Novel Benzothiazole Derivatives: Treatment of Acute Lung Injury through the Necroptosis Pathway” (J Med Chem, 2023)
Active and inactive are the calls of the source. No cut-off for these calls is given here.

Columns and labels:
HT-29 [1] = assay: Anti-necroptotic activity in human HT-29 cells assessed as inhibition of human TNFalpha/Smac mimetic/Z-VAD-FMK induced necroptosis preincubated with compound for 16 to 24 hrs followed by TSZ stimulation for 12 hrs measured by cell-titre glo luminescent cell viability assay; format: functional, cell-based
[2] = target: T1, Receptor-interacting serine/threonine-protein kinase 1 (Homo sapiens, UniProt Q13546); assay: Binding affinity to human wildtype full length RIPK1 (M1 to K305 residues) expressed in bacterial expression system assessed as dissociation constant by kinome scan kd select based qPCR analysis
T1 sequence (Q13546 whole entry): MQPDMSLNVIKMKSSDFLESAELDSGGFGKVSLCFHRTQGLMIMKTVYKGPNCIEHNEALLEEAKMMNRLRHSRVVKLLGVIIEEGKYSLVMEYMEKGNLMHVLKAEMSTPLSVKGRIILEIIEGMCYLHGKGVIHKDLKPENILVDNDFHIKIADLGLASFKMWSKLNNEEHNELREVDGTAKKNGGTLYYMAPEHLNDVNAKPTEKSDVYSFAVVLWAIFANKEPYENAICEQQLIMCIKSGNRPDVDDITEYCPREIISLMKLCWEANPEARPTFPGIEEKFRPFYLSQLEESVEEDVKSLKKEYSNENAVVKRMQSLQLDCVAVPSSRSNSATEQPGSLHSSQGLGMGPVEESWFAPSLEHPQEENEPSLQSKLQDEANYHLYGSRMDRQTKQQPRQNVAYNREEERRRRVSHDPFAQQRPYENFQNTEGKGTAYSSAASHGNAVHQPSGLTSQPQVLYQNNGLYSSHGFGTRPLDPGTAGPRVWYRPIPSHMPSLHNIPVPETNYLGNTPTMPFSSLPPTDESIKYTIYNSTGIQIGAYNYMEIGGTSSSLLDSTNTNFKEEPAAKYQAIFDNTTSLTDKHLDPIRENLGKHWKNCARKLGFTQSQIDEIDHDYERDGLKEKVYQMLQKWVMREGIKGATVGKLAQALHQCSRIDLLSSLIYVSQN

HT-29 [3] = assay: Anti-necroptotic activity in human HT-29 cells assessed as inhibition of human TNFalpha/Smac mimetic/Z-VAD-FMK induced necroptosis preincubated with compound followed by TSZ stimulation for 12 hrs; format: functional, cell-based
HT-29 [4] = assay: Cytotoxicity against human HT-29 cells incubated for 16 to 24 hrs measured by cell-titre glo luminescent cell viability assay; format: functional; conditions: time 16-24 hrs
[5] = target: Receptor-interacting serine/threonine-protein kinase 3 (Homo sapiens, UniProt Q9Y572); assay: Binding affinity to human wildtype full length RIPK3 (M1 to Q307 residues) expressed in bacterial expression system assessed as dissociation constant by kinome scan kd select based qPCR analysis
HT-29 [6] = assay: Cytotoxicity against human HT-29 cells incubated at 100 uM for 16 to 24 hrs measured by cell-titre glo luminescent cell viability assay; format: functional, cell-based; conditions: time 16-24 hrs
Mus musculus = assay: In vivo anti-inflammatory activity in NNK induced induced C57BL/6J ALI mouse model assessed as lung injury score pretreated at 5 mg/kg, ip for 1 hr followed by NNK administration relative to disease model (reference value: 5.7 +/- 0.5); format: functional

Sequence of Receptor-interacting serine/threonine-protein kinase 3 (Q9Y572 whole entry, the tested form may be a part): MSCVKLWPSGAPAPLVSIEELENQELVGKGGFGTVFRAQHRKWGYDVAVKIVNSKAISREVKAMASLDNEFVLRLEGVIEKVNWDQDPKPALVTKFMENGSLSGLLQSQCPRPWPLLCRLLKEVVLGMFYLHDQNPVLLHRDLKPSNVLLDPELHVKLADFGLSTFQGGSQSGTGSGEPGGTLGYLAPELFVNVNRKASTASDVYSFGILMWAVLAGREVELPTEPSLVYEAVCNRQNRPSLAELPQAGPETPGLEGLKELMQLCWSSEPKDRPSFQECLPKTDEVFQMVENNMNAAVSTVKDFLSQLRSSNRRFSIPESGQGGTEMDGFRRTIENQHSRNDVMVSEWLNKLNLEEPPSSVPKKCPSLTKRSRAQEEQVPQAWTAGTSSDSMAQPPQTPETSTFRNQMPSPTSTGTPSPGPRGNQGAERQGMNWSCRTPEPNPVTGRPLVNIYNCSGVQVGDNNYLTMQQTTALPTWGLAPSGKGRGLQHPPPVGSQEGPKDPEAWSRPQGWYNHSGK

| Structure (SMILES) | EC50 (HT-29 [1]) | Kd [2] | Activity (HT-29 [3]) | CC50 (HT-29 [4]) | Kd [5] | Activity (HT-29 [6]) | EC50 (HT-29 [3]) | Activity (Mus musculus) |
| --- | --- | --- | --- | --- | --- | --- | --- | --- |
| CCCCC(=O)NC1CCC(C(=O)Nc2nc3cc(F)c(Oc4ccc(F)c(NC(=O)Cc5cccc(C(F)(F)F)c5)c4)cc3s2)CC1 (centres undefined) | 42.4 nM | 45 nM | inactive | > 100000 nM | > 10000 nM | Active |  |  |
| CCCS(=O)(=O)NC1CCC(C(=O)Nc2nc3cc(F)c(Oc4ccc(F)c(NC(=O)Cc5cccc(C(F)(F)F)c5)c4)cc3s2)CC1 (centres undefined) | 119 nM |  | inactive | > 100000 nM |  | Active |  |  |
| CCCC(=O)NC1CCC(C(=O)Nc2nc3cc(F)c(Oc4ccc(F)c(NC(=O)Cc5cccc(C(F)(F)F)c5)c4)cc3s2)CC1 (centres undefined) | 82.7 nM |  | inactive | > 100000 nM |  | Active |  |  |
| O=C1CCC(C(=O)Nc2nc3ccc(Oc4ccc(F)c(NC(=O)Cc5cccc(C(F)(F)F)c5)c4)cc3s2)CC1 |  |  |  | > 50000 nM |  |  | 50 nM |  |
| O=C(Cc1cccc(C(F)(F)F)c1)Nc1cc(Oc2cc3sc(NC(=O)C4CCCC(NC(=O)C5CC5)C4)nc3cc2F)ccc1F (centres undefined) | 71.2 nM |  | inactive | > 100000 nM |  | Active |  |  |
| CC(C)(C)OC(=O)NC1CCCC(C(=O)Nc2nc3cc(F)c(Oc4ccc(F)c(NC(=O)Cc5cccc(C(F)(F)F)c5)c4)cc3s2)C1 (centres undefined) | 334 nM |  | inactive | > 100000 nM |  | Active |  |  |
| O=C(Cc1cccc(C(F)(F)F)c1)Nc1cc(Oc2cc3sc(NC(=O)C4CCC(NC(=O)c5cccs5)CC4)nc3cc2F)ccc1F (centres undefined) | 52.9 nM | 69 nM | inactive | > 100000 nM | > 10000 nM | Active |  |  |
| CC(C)CC(=O)NC1CCC(C(=O)Nc2nc3cc(F)c(Oc4ccc(F)c(NC(=O)Cc5cccc(C(F)(F)F)c5)c4)cc3s2)CC1 (centres undefined) | 47.5 nM |  | inactive | > 100000 nM |  | Active |  |  |
| N#Cc1c(Oc2ccc(F)c(NC(=O)Cc3cccc(C(F)(F)F)c3)c2)ccc2nc(NC(=O)C3CC3)sc12 |  |  |  | > 50000 nM |  |  |  |  |
| C[C@@H]1C[C@H]2[C@@H]3CCC4=CC(=O)C=C[C@]4(C)[C@@]3(F)[C@@H](O)C[C@]2(C)[C@@]1(O)C(=O)CO [DEXAMETHASONE] |  |  |  |  |  |  |  | 3.7 |
| O=C(Cc1cccc(C(F)(F)F)c1)Nc1cc(Oc2cc3sc(NC(=O)C4CCC(NC(=O)C5CCCC5)CC4)nc3cc2F)ccc1F (centres undefined) | 72.9 nM |  | inactive | > 100000 nM |  | Active |  |  |
| O=C(Cc1cccc(C(F)(F)F)c1)Nc1cc(Oc2cc3sc(NC(=O)C4CCC(NC(=O)CCCl)CC4)nc3cc2F)ccc1F (centres undefined) | 50 nM | 43 nM | inactive | > 100000 nM | > 10000 nM | Active |  |  |
| CC(C)C(=O)NC1CCC(C(=O)Nc2nc3cc(F)c(Oc4ccc(F)c(NC(=O)Cc5cccc(C(F)(F)F)c5)c4)cc3s2)CC1 (centres undefined) | 34.1 nM | 15 nM | inactive | > 100000 nM | > 10000 nM | Active |  |  |
| O=C(Cc1cccc(C(F)(F)F)c1)Nc1cc(Oc2cc3sc(NC(=O)C4CCC(NS(=O)(=O)c5ccccc5)CC4)nc3cc2F)ccc1F (centres undefined) | 234 nM |  | inactive | > 100000 nM |  | Active |  |  |
| O=C(Cc1cccc(C(F)(F)F)c1)Nc1cc(Oc2cc3sc(NC(=O)C4CCC(O)CC4)nc3cc2F)ccc1F (centres undefined) | 95.6 nM |  | inactive | > 100000 nM |  | Active |  |  |
| CC(=O)OCC(=O)NC1CCC(C(=O)Nc2nc3cc(F)c(Oc4ccc(F)c(NC(=O)Cc5cccc(C(F)(F)F)c5)c4)cc3s2)CC1 (centres undefined) | 81.8 nM |  | inactive | > 100000 nM |  | Active |  |  |
| O=C(Cc1cccc(C(F)(F)F)c1)Nc1cc(Oc2cc3sc(NC(=O)C4CCC(NC(=O)C5CC5)CC4)nc3cc2F)ccc1F (centres undefined) | 50.5 nM |  | inactive | > 100000 nM |  | Active |  |  |
| COCC(=O)NC1CCC(C(=O)Nc2nc3cc(F)c(Oc4ccc(F)c(NC(=O)Cc5cccc(C(F)(F)F)c5)c4)cc3s2)CC1 (centres undefined) | 44.8 nM | 15 nM | inactive | > 100000 nM | > 10000 nM | Active |  |  |
| CCOCC(=O)NC1CCC(C(=O)Nc2nc3cc(F)c(Oc4ccc(F)c(NC(=O)Cc5cccc(C(F)(F)F)c5)c4)cc3s2)CC1 (centres undefined) | 48.4 nM | 15 nM | inactive | > 100000 nM | > 10000 nM | Active |  |  |
| O=C(Cc1cccc(C(F)(F)F)c1)Nc1cc(Oc2cc3sc(NC(=O)C4CCC(NC(=O)c5ccc(F)cc5)CC4)nc3cc2F)ccc1F (centres undefined) | 55.2 nM |  | inactive | > 100000 nM |  | Active |  |  |
| CC(C)(C)OC(=O)NC1CCC(C(=O)Nc2nc3cc(F)c(Oc4ccc(F)c(NC(=O)Cc5cccc(C(F)(F)F)c5)c4)cc3s2)CC1 (centres undefined) | 136 nM |  | inactive | > 100000 nM |  | Active |  |  |
| CCC(=O)NC1CCC(C(=O)Nc2nc3cc(F)c(Oc4ccc(F)c(NC(=O)Cc5cccc(C(F)(F)F)c5)c4)cc3s2)CC1 (centres undefined) | 83.2 nM |  | inactive | > 100000 nM |  | Active |  |  |
| O=C(Cc1cccc(C(F)(F)F)c1)Nc1cc(Oc2cc3sc(NC(=O)C4CCC(NC(=O)OCc5ccccc5)CC4)nc3cc2F)ccc1F (centres undefined) | 945 nM |  | inactive | > 100000 nM |  | Active |  |  |
| CCCC1CCC(C2CCC(C(=O)Nc3nc4cc(F)c(Oc5ccc(F)c(NC(=O)Cc6cccc(C(F)(F)F)c6)c5)cc4s3)CC2)CC1 (centres undefined) | > 10000 nM |  | inactive | > 100000 nM |  | Active |  |  |
| CCCC1CCC(C(=O)Nc2nc3cc(F)c(Oc4ccc(F)c(NC(=O)Cc5cccc(C(F)(F)F)c5)c4)cc3s2)CC1 (centres undefined) | > 10000 nM |  | inactive | > 100000 nM |  | Active |  |  |
